Reference: patent US6972175B2, “Inhibition of Egr-1 expression by ppar-gamma agonists and related compositions and methods” (priority 2002, dated 2005)

What was measured:
Egr-1 mRNA = Egr-1 mRNA levels by Northern blotting in hypoxic mononuclear phagocytes; type: cell-based, rat; settings: NR8383 cells, ligand added 6 hours before 30 minutes hypoxia; Northern blot, FIG. 1a
Method: Cell culture and induction of hypoxia. A rat alveolar macrophage cell line (NR8383) was obtained from the ATCC (Manassas, Va.), and cells were grown to 70% confluence in Ham's F-12K medium containing 15% heat-inactivated fetal bovine serum. Cells were made quiescent by serum starvation (0.2%, fetal bovine serum) for 24 hours. The PPAR-γ ligands were obtained from the following sources: troglitazone was provided by Sankyo Pharmaceutical Co. (Tokyo, Japan); and 15-d-PGJ2 was purchased from Cayman Chemical Co. (Ann Arbor, Mich.). The PPAR-α ligand bezafibrate was obtained from Sigma Chemical Co. (St. Louis. Mo.). These PPAR ligands were dissolved in minute quantities of DMSO (final concentration 0.005%). PPAR ligands were added 6 hours prior to induction of hypoxia. […]

Egr-1 protein = Egr-1 protein expression by Western blotting in hypoxic mononuclear phagocytes; type: cell-based, rat; settings: ligand added 6 hours before 30 minutes hypoxia; Western blot, FIG. 1b
Method: (§1) Cell culture and induction of hypoxia. A rat alveolar macrophage cell line (NR8383) was obtained from the ATCC (Manassas, Va.), and cells were grown to 70% confluence in Ham's F-12K medium containing 15% heat-inactivated fetal bovine serum. Cells were made quiescent by serum starvation (0.2%, fetal bovine serum) for 24 hours. The PPAR-γ ligands were obtained from the following sources: troglitazone was provided by Sankyo Pharmaceutical Co. (Tokyo, Japan); and 15-d-PGJ2 was purchased from Cayman Chemical Co. (Ann Arbor, Mich.). The PPAR-α ligand bezafibrate was obtained from Sigma Chemical Co. (St. Louis. Mo.). These PPAR ligands were dissolved in minute quantities of DMSO (final concentration 0.005%). PPAR ligands were added 6 hours prior to induction of hypoxia. Using an environmental chamber described previously (Yan, 1999), cells were subjected to 30 minutes hypoxia (pO2 in the medium ˜12–14 torr. This time was chosen because it has previously been shown that this is the time of maximal Egr-1 expression in hypoxic macrophages. Cells subjected to hypoxia were placed in medium pre-equilibrated with the hypoxic gas mixture just prior to placement in the environmental chamber. Thus, cultures were immersed immediately in the oxygen-deprived environment at the time of medium change, coinciding with time of placement in the chamber.
Western blotting. […]

Egr-1 = assay: Hypoxia-driven Egr-1 induction in macrophages (data not shown); type: cell-based
Method: as §1

Egr-1/DNA binding = assay: Electrophoretic mobility gel shift assay on nuclear extracts from NR8383 cells; type: cell-based, rat; settings: nuclear extracts of NR8383 cells 30 minutes after hypoxia; 1 or 20 μM 15-d-PGJ2, 20 μM troglitazone, 20 μM bezafibrate; FIG. 1c
Method: as §1
Electrophoretic mobility gel shift assay. […]

[1] = Murine survival following lung ischemia/reperfusion injury; type: in vivo, mouse; settings: 1 hour after circulatory exclusion of nonischemic lung
Method: Murine ischemia/reperfusion model. C57BL6/J mice (male, 12–15 weeks old) purchased from Jackson Laboratories (Bar Harbor, Me.) were used in these experiments according to a protocol approved by the Institutional Animal Care and Use Committee at Columbia University, in accordance with guidelines of the American Association for the Accreditation of Laboratory Animal Care.
Troglitazone was administered to mice by oral gavage (0.1 mL/mouse) for 7 days at doses of 0, 5, and 100 mg/kg/day, prepared as a suspension in 0.5% methylcellulose solution. For control experiments, methylcellulose solution alone was used for gavage (these experiments are referred to as “vehicle” controls). The ischemia/reperfusion stress followed on day 8. […] Survival was measured 1 hour after circulatory exclusion of the nonoperated lung (by ligating the right hilum), which was performed after both the ischemic and reperfusion (3 hours) periods had elapsed. […]
Statistics. […] Survival was estimated by the Kaplan-Meier method, with differences in survival determined by log-rank analysis. Values are expressed as mean±standard error of the mean (SEM), with differences considered statistically significant when p<0.05.

Structure (SMILES) | Egr-1 mRNA levels after hypoxia (Egr-1 mRNA) | Egr-1 protein levels after hypoxia (Egr-1 protein) | hypoxia-driven Egr-1 induction in macrophages (Egr-1) | potency of inhibition of hypoxia-induced Egr-1 expression compared with troglitazone (Egr-1; macrophages, parallel study) | gel shift band associated with Egr-1/DNA binding (Egr-1/DNA binding) | survival relative to vehicle-treated mice ([1]; vehicle 10% survival) [times] | survival ([1]; 1 hour ischemia, 3 hours reperfusion, FIG. 4f) [%]
CCCCCC=CC=C1C(=O)C=C[C@@H]1CC=CCCCC(=O)O [15-d-PGJ2, 15-deoxy-Δ^12,14-prostaglandinJ2] | significantly reduced | significantly inhibited | inhibited hypoxia-induced expression of Egr-1 | equal potency as troglitazone | virtually abrogated | – | –
Cc1c(C)c2c(c(C)c1O)CCC(C)(COc1ccc(CC3SC(=O)NC3=O)cc1)O2 (stereo not shown) [troglitazone] | – | – | – | – | – | 4 | 40
